According to ChEMBL document CHEMBL4800722, “Data for DCP probe BI 605906” (2021):

Experiments:
[1] = biological target: Cathepsin G (Homo sapiens) (UniProt P08311); assay: PEPCATHEPSG Eurofins SafetyScreen44 (BI); details: Compound concentration 10.0 uM
[2] = biological target: CDK3/Cyclin E (Homo sapiens) (UniProt P24864+Q00526); assay: CDK3/CYCLIN E1 Invitrogen Lab (UK) kinase screen (BI); assay type: protein-complex assay; details: Compound concentration 1.0 uM
[3] = biological target: Phosphatidylinositol 5-phosphate 4-kinase type-2 alpha (Homo sapiens) (UniProt P48426); assay: PIP4K2A Invitrogen Lab (UK) kinase screen (BI); details: Compound concentration 1.0 uM
[4] = biological target: Serine/threonine-protein kinase SIK3 (Homo sapiens) (UniProt Q9Y2K2); assay: SIK3 Invitrogen Lab (UK) kinase screen (BI); details: Compound concentration 1.0 uM
[5] = biological target: Cytoplasmic tyrosine-protein kinase BMX (Homo sapiens) (UniProt P51813); assay: BMX Invitrogen Lab (UK) kinase screen (BI); details: Compound concentration 1.0 uM
[6] = biological target: Tyrosine-protein kinase Lyn (Homo sapiens) (UniProt P07948); assay: LYN B Invitrogen Lab (UK) kinase screen (BI); details: Compound concentration 1.0 uM
[7] = biological target: NT-3 growth factor receptor (Homo sapiens) (UniProt Q16288); assay: NTRK3 Invitrogen Lab (UK) kinase screen (BI); details: Compound concentration 1.0 uM
[8] = biological target: NUAK family SNF1-like kinase 1 (Homo sapiens) (UniProt O60285); assay: NUAK1 Invitrogen Lab (UK) kinase screen (BI); details: Compound concentration 1.0 uM
[9] = biological target: Phosphatidylinositol 4-kinase alpha (Homo sapiens) (UniProt P42356); assay: PI4KA Invitrogen Lab (UK) kinase screen (BI); details: Compound concentration 1.0 uM
[10] = biological target: T1, Serine/threonine-protein kinase Chk1 (Homo sapiens) (UniProt O14757); assay: CHK1 DUNDEE kinase screen (BI); details: Compound concentration 10.0 uM
T1 sequence (whole entry): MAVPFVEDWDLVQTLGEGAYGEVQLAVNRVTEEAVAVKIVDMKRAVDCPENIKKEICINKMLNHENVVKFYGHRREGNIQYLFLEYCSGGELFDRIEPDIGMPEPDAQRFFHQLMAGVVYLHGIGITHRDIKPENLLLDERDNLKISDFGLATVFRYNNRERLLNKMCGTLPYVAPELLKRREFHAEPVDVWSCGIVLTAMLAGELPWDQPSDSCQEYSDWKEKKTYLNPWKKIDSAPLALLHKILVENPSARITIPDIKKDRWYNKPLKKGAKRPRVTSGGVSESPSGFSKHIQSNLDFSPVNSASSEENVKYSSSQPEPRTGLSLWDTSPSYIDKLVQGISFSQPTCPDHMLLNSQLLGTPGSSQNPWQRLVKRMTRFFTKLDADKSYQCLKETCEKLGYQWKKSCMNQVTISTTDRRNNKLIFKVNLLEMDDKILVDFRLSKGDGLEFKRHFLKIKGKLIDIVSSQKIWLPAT

[11] = biological target: Casein kinase I (Homo sapiens) (UniProt Q9HCP0+P78368+P48730+P49674+P48729); assay: CK1 DUNDEE kinase screen (BI); assay type: protein assay; details: Rattus norvegicus; Compound concentration 10.0 uM
[12] = biological target: Eukaryotic elongation factor 2 kinase (Homo sapiens) (UniProt O00418); assay: EF2K DUNDEE kinase screen (BI); details: filed as activator, Compound concentration 10.0 uM
[13] = biological target: MAP kinase-interacting serine/threonine-protein kinase 2 (Homo sapiens) (UniProt Q9HBH9); assay: MNK2 ALPHA DUNDEE kinase screen (BI); details: Compound concentration 10.0 uM
[14] = biological target: Serine/threonine-protein kinase PLK1 (Homo sapiens) (UniProt P53350); assay: PLK1 DUNDEE kinase screen (BI); details: Compound concentration 10.0 uM
[15] = biological target: MAP kinase-activated protein kinase 5 (Homo sapiens) (UniProt Q8IW41); assay: PRAK DUNDEE kinase screen (BI); details: Compound concentration 10.0 uM
[16] = biological target: 5-hydroxytryptamine receptor 6 (Homo sapiens) (UniProt P50406); details: Compound concentration 10.0 uM
[17] = biological target: Muscarinic acetylcholine receptor M1 (Homo sapiens) (UniProt P11229); details: Compound concentration 10.0 uM
[18] = biological target: Muscarinic acetylcholine receptor M2 (Homo sapiens) (UniProt P08172); details: Compound concentration 10.0 uM
[19] = biological target: Nicotinic Acetylcholine Receptor (Homo sapiens) (UniProt P02708+P07510+P11230+P17787+P30926+P32297+P43681+Q07001+Q15822+Q9UGM1+Q15825+P30532+Q04844+P36544+Q9GZZ6+Q05901); details: Compound concentration 10.0 uM
[20] = biological target: AP2-associated protein kinase 1 (Homo sapiens, UniProt Q2M2I8)
AP2-associated protein kinase 1, sequence (Q2M2I8 whole entry, looked up): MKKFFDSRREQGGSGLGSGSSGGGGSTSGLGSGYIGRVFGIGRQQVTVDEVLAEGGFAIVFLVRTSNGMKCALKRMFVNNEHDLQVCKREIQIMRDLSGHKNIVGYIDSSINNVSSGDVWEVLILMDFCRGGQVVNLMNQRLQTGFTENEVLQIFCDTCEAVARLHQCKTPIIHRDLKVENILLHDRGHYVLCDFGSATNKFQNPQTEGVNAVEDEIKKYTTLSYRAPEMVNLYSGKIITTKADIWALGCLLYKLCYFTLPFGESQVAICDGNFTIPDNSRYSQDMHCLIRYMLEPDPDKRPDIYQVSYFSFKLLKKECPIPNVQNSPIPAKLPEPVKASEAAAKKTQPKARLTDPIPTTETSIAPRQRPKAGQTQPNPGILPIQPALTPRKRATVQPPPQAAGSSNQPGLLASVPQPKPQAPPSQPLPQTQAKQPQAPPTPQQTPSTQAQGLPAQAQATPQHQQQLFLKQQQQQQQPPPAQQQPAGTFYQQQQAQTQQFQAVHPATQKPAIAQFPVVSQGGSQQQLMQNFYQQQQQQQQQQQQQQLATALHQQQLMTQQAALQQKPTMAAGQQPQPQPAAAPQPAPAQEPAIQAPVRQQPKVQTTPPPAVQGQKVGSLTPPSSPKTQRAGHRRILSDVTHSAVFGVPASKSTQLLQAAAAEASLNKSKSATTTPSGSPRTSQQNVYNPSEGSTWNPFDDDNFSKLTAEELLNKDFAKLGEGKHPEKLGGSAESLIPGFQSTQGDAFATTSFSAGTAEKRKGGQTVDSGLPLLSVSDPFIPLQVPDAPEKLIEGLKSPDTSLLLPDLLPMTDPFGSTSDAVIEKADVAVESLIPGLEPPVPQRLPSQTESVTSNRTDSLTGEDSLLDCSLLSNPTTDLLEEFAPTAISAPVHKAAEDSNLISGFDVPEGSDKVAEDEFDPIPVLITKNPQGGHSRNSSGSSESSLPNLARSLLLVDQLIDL

[21] = biological target: Cyclin-dependent kinase 2/cyclin E1 (Homo sapiens) (UniProt P24864+P24941); details: Compound concentration 1.0 uM
[22] = biological target: Serine/threonine-protein kinase DCLK1 (Homo sapiens) (UniProt O15075); details: Compound concentration 1.0 uM
[23] = biological target: Ephrin type-A receptor 6 (Homo sapiens) (UniProt Q9UF33); details: Compound concentration 1.0 uM
[24] = biological target: Serine/threonine-protein kinase 32B (Homo sapiens) (UniProt Q9NY57); details: Compound concentration 1.0 uM
Serine/threonine-protein kinase 32B (Homo sapiens), sequence (Q9NY57 whole entry): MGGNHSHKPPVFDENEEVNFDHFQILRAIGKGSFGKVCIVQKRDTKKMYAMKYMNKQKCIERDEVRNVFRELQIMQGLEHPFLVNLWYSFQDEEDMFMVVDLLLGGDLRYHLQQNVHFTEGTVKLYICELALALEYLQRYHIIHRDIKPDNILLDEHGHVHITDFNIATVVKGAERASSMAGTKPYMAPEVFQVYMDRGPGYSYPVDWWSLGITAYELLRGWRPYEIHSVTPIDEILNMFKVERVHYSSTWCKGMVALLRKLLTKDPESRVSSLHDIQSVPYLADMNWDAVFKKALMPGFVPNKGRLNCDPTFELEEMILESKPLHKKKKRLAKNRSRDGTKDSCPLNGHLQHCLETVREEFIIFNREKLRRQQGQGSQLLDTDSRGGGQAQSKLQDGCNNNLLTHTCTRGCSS

[25] = biological target: Serine/threonine-protein kinase WNK1 (Homo sapiens) (UniProt Q9H4A3); details: Compound concentration 1.0 uM
[26] = biological target: AMP-activated protein kinase (AMPK) alpha-1/beta-1/gamma-1 (Homo sapiens) (UniProt P54619+Q9Y478+Q13131)
AMP-activated protein kinase (AMPK) alpha-1/beta-1/gamma-1 (Homo sapiens), sequence (P54619 whole entry): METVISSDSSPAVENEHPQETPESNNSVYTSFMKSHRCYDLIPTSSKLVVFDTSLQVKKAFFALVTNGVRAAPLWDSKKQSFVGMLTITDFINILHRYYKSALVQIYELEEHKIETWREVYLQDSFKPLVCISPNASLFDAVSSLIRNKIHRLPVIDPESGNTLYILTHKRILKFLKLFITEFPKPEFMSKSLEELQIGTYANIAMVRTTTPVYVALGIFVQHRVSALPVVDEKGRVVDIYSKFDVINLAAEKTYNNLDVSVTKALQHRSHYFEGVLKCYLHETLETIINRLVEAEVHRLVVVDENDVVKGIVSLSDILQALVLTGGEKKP
AMP-activated protein kinase (AMPK) alpha-1/beta-1/gamma-1 (Homo sapiens), sequence (Q13131 whole entry partner): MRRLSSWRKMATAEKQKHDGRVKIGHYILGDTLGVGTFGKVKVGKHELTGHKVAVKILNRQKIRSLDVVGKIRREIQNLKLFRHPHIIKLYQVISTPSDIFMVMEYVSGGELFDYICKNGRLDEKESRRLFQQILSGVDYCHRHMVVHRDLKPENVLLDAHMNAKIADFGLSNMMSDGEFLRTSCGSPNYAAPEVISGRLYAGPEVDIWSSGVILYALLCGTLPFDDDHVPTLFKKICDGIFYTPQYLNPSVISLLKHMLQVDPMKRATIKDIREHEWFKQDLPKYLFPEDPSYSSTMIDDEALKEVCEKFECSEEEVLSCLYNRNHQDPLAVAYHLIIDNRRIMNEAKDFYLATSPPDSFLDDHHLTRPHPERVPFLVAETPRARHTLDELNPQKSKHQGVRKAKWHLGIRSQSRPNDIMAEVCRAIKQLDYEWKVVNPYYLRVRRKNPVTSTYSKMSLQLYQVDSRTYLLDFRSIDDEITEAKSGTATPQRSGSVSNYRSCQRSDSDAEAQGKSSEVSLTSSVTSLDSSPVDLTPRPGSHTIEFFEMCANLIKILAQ
AMP-activated protein kinase (AMPK) alpha-1/beta-1/gamma-1 (Homo sapiens), sequence (Q9Y478 2-270 partner limits assumed): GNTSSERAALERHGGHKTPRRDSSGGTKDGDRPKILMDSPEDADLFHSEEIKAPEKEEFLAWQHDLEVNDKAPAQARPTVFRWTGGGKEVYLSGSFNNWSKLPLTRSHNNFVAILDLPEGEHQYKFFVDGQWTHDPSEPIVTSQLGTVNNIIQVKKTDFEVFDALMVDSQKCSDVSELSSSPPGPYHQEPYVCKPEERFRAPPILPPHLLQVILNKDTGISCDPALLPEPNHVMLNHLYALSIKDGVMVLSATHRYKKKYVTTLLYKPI

[27] = biological target: Macrophage colony-stimulating factor 1 receptor (Homo sapiens) (UniProt P07333)
Macrophage colony-stimulating factor 1 receptor (Homo sapiens), sequence (P07333 whole entry): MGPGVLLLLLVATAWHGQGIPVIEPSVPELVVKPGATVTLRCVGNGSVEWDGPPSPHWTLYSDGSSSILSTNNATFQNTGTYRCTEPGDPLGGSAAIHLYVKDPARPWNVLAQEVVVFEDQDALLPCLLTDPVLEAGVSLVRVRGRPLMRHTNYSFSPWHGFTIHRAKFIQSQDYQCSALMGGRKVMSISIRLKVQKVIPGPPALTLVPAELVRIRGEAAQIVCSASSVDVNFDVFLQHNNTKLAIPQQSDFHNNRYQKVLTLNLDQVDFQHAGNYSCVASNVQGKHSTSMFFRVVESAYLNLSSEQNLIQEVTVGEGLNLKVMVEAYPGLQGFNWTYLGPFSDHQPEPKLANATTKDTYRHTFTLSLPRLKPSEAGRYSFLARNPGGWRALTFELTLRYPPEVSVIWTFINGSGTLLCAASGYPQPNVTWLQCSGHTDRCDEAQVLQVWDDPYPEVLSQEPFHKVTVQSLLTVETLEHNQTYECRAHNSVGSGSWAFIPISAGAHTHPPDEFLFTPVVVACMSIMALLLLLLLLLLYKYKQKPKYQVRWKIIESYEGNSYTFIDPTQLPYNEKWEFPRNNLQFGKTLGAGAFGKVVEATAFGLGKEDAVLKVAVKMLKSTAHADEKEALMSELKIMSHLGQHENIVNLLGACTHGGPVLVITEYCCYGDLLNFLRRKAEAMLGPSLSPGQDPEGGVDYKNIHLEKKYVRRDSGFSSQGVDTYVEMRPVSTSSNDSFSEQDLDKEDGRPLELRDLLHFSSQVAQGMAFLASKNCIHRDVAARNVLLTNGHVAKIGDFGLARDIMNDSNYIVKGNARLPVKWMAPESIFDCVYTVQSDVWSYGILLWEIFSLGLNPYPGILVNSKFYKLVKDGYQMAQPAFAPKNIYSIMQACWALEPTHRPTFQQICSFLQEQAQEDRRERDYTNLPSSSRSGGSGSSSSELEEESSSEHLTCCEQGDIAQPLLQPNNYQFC

[28] = biological target: Homeodomain-interacting protein kinase 1 (Homo sapiens) (UniProt Q86Z02); details: Compound concentration 1.0 uM
[29] = biological target: Mitogen-activated protein kinase kinase kinase kinase 5 (Homo sapiens) (UniProt Q9Y4K4); details: Compound concentration 1.0 uM
[30] = biological target: Mitogen-activated protein kinase 13 (Homo sapiens) (UniProt O15264); details: Compound concentration 1.0 uM
[31] = biological target: Phosphatidylinositol 4-phosphate 3-kinase C2 domain-containing subunit alpha (Homo sapiens) (UniProt O00443); details: Compound concentration 1.0 uM
[32] = biological target: Protein kinase C delta type (Homo sapiens) (UniProt Q05655); details: Compound concentration 1.0 uM
[33] = biological target: Ribosomal protein S6 kinase alpha-4 (Homo sapiens) (UniProt O75676); details: Compound concentration 1.0 uM
Ribosomal protein S6 kinase alpha-4 (Homo sapiens), sequence (O75676 whole entry, looked up): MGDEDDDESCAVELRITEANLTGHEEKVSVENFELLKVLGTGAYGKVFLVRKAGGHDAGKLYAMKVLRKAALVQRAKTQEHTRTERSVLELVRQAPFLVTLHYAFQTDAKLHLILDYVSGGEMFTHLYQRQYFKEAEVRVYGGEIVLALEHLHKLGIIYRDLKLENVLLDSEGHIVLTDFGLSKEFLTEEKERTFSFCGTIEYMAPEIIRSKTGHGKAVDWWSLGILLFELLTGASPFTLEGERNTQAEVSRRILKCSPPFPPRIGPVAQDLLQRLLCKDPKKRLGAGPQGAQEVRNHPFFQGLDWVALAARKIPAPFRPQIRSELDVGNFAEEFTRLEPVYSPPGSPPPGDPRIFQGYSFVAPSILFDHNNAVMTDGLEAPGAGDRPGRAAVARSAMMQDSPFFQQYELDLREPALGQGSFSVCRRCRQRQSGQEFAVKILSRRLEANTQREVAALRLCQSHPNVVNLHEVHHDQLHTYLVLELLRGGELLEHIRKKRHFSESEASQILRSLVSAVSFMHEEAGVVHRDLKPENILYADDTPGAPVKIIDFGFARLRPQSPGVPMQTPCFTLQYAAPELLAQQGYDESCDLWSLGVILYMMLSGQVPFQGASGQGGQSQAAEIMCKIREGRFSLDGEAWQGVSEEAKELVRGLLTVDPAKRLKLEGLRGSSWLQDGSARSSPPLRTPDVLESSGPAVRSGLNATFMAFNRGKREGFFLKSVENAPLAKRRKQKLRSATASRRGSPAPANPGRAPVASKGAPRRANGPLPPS

[34] = biological target: Serine/threonine-protein kinase Sgk1 (Homo sapiens) (UniProt O00141); details: Compound concentration 1.0 uM
[35] = biological target: Non-receptor tyrosine-protein kinase TYK2 (Homo sapiens) (UniProt P29597); details: Compound concentration 1.0 uM

CDK3/Cyclin E (Homo sapiens), sequence (P24864 whole entry, looked up): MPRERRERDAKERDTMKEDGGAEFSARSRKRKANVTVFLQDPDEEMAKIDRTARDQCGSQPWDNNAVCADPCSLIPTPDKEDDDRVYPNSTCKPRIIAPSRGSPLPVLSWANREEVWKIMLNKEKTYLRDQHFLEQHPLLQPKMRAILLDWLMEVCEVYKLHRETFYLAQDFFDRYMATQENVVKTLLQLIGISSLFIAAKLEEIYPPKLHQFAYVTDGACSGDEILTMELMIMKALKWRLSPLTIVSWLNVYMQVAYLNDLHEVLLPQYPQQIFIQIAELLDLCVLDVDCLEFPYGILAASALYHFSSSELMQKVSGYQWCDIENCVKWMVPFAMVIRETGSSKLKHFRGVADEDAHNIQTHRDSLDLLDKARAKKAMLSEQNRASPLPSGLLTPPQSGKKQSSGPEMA
CDK3/Cyclin E (Homo sapiens), sequence (Q00526 whole entry, looked up): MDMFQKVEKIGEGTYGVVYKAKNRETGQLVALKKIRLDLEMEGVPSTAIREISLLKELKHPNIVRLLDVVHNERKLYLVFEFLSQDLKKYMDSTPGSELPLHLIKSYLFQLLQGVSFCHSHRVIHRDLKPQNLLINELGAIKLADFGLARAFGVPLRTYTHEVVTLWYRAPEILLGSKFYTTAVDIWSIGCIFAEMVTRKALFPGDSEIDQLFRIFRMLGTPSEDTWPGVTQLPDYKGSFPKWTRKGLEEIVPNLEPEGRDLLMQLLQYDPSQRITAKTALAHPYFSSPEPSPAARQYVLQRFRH

## CCC(F)(F)c1cc(N2CCC(S(C)(=O)=O)CC2)nc2sc(C(N)=O)c(N)c12 [BI-605906]
[1]
  residual activity: 106%
[2]
  residual activity: 78%
[3]
  residual activity: 115%
[4]
  residual activity: 79%
[5]
  residual activity: 88%
[6]
  residual activity: 78%
[7]
  residual activity: 84%
[8]
  residual activity: 84%
[9]
  residual activity: 84%
[10]
  residual activity: 90.2%
[11]
  residual activity: 68.6%
[12]
  residual activity: 66.2%
[13]
  residual activity: 67.2%
[14]
  residual activity: 86.8%
[15]
  residual activity: 61.1%
[16]
  inhibition: 8.77%
[17]
  inhibition: 8.33%
[18]
  inhibition: 8%
[19]
  residual activity: 101%
[20]; Compound concentration 0.001 uM
  residual activity: 101%
[20]; Compound concentration 1.0 uM
  residual activity: 13%
[20]; Compound concentration 20.0 uM
  residual activity: 4%
[21]
  residual activity: 94%
[22]
  residual activity: 99%
[23]
  residual activity: 91%
[24]
  residual activity: 96%
[25]
  residual activity: 99%
[26]; Compound concentration 1.0 uM
  residual activity: 95%
[26]; Compound concentration 10.0 uM
  residual activity: 80%
[27]; Compound concentration 1.0 uM
  residual activity: 58%
[27]; Compound concentration 10.0 uM
  residual activity: 14%
[28]
  residual activity: 101%
[29]
  residual activity: 101%
[30]
  residual activity: 94%
[31]
  residual activity: 97%
[32]
  residual activity: 109%
[33]
  residual activity: 96%
[34]
  residual activity: 97%
[35]
  residual activity: 93%
